This note sets out measurements from patent US20250368666A1, “INDAZOLE COMPOUNDS” (TYRA BIOSCIENCES, INC., priority 2022, published 2025).

One experiment concerns the target T1, FGFR1 (Homo sapiens, UniProt P11362).
T1 construct: made in house; host or cells: E. coli (BL21-derived), T7 phage
Nature of the experiment: Kinase binding assay (kinase-tagged T7 phage, affinity beads, qPCR), Kd. To be noted: read-out: FGFR1 (Kd nM). Summed up:
(§1)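 Readout was qPCR of kinase eluted from ligand-coated affinity beads after competition with test compound. Kinases were expressed as T7 phage fusions in E. coli. Binding constants were derived by non-linear least-squares Hill fitting, Hill slope −1.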
In general terms: Real-time PCR tracks product formation cycle by cycle.

The next experiment has as its target T2, FGFR2 (Homo sapiens, UniProt P21802).
T2 construct: made in house; host or cells: E. coli (BL21-derived), T7 phage
The experiment is described as above. To be noted: read-out: FGFR2 (Kd nM). Summed up:
as §1

In another experiment the target is T3, FGFR3 (Homo sapiens, UniProt P22607).
T3 construct: made in house; host or cells: E. coli (BL21-derived), T7 phage
T3 sequence (P22607 23-806): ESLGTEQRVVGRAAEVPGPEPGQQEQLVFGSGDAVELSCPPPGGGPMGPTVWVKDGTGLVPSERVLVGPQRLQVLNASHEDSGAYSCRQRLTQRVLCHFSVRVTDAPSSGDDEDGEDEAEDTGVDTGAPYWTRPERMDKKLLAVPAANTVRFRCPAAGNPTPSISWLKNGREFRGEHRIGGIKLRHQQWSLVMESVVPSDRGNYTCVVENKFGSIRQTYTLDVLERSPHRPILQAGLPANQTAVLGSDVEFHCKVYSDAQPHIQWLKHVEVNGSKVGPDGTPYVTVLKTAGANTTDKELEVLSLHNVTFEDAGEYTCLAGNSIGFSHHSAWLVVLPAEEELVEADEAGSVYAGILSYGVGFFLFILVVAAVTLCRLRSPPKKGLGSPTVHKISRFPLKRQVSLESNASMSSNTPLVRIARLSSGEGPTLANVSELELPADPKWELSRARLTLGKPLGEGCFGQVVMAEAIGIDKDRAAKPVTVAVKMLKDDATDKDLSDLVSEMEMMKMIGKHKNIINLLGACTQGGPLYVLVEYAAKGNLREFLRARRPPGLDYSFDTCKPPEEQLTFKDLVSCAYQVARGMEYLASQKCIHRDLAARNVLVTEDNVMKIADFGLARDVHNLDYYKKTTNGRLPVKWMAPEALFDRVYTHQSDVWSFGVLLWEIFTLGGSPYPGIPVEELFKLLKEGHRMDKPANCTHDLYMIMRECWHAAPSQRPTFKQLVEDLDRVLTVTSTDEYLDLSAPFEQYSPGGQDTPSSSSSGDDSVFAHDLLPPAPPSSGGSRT
The experiment is described as above. To be noted: read-out: FGFR3 (Kd nM). The procedure, abridged:
as §1

Another experiment has as its target T4, FGFR3 (V555M) (Homo sapiens, UniProt P22607, V555M).
T4 construct: made in house; host or cells: E. coli (BL21-derived), T7 phage
The description is as above. Particulars: V555M mutant; read-out: FGFR3 (V555M) (Kd nM). The procedure, abridged: as §1

In another experiment the target is T5, FGFR4 (Homo sapiens, UniProt P22455).
T5 construct: made in house; host or cells: E. coli (BL21-derived), T7 phage
T5 sequence (P22455 22-802): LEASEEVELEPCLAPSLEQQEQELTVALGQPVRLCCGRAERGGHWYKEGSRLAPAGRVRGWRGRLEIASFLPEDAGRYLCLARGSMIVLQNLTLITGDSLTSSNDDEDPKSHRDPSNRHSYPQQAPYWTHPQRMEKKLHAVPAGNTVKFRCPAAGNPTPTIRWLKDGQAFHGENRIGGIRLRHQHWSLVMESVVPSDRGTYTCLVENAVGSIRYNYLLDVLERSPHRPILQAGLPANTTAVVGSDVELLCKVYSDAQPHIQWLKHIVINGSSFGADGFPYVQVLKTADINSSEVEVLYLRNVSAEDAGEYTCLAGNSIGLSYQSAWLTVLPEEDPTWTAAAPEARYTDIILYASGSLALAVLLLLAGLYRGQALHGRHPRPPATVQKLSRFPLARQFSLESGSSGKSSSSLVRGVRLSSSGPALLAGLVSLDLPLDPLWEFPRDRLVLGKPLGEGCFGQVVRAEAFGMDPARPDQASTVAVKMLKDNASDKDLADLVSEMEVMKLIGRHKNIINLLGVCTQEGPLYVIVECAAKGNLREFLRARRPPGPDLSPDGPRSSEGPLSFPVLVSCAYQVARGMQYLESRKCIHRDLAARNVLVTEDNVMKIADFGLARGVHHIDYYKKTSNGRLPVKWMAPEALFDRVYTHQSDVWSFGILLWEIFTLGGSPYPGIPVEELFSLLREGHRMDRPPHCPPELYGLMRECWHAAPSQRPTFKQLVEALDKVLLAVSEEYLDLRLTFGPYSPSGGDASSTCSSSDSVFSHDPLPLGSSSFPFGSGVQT
Described as above. Particulars: read-out: FGFR4 (Kd nM). The procedure, abridged:
as §1

Experiment [1] relates to KATO-III cell line (FGFR2 amplification). Nature of the experiment: Cancer cell line cell viability assay (Cell Titer-Glo), 72 hr. The format is cell-based. To be noted: Homo sapiens, KATO III. Summed up:
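5,000-20,000 cells/well o/n; cpd 9-pt 4x dil from 3 μM, n=3; 37° C/5% CO2; CTG 2.0 lumi; % DMSO ctrl; 4PL IC50.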
(In general: In ATP-based viability assays light output follows the ATP content of the culture.)

Experiment [2] has as its system KG-1 cell line (FGFR 1-fusion). The experiment is described as above. Type of experiment: cell-based. To be noted: Homo sapiens, KG-1, KG-1 cell line (FGFR1-fusion). The procedure, abridged:
(§2)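 Cells seeded at 5,000-20,000/well, incubated overnight, then treated with a 9-dose, 4-fold dilution series from 3 μM in triplicate at 37° C, 5% CO2. Viability read by Cell Titer-Glo 2.0 luminescence as percent of DMSO control; IC50 from 4-parameter variable-slope sigmoidal fit.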

Experiment [3] concerns RT112/84 cell line (FGFR3-fusion). The description is as above. To be noted: Homo sapiens, RT112/84, RT112/84 cell line (FGFR3-fusion). The format is cell-based. Summed up:
as §2

Experiment [4] concerns HuH7 cell line (FGF19 amplification). Nature of the experiment: Cancer cell line cell viability assay (Cell Titer-Glo), 120 hr. The format is cell-based. Particulars: Homo sapiens, Huh-7. Summed up: as §2

One may read the Kd as a measure of binding affinity in units of concentration. As usually defined, the IC50 is the concentration needed to halve the response being measured.

T2 sequence (P21802 22-821): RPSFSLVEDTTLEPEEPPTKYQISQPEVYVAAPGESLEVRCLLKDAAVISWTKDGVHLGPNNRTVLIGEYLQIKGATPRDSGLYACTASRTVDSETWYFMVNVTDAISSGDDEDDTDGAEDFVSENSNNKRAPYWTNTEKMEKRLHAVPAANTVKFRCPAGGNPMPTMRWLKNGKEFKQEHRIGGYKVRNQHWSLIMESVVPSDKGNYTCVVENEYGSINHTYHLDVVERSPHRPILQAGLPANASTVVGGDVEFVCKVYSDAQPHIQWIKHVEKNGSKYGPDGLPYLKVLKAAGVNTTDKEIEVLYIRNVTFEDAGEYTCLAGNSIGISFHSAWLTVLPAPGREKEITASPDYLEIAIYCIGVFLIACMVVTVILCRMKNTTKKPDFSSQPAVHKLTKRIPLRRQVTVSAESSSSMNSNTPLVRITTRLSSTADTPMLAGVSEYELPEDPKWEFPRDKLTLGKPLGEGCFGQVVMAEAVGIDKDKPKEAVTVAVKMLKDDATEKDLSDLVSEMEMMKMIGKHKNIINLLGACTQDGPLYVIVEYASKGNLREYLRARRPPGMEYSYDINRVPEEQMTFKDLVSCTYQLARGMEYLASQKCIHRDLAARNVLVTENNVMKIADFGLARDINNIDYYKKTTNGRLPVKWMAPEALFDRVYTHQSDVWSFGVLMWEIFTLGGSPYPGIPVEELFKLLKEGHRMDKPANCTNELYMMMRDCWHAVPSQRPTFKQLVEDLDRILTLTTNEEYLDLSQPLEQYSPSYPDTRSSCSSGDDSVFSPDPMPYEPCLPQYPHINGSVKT
T1 sequence (P11362 22-822): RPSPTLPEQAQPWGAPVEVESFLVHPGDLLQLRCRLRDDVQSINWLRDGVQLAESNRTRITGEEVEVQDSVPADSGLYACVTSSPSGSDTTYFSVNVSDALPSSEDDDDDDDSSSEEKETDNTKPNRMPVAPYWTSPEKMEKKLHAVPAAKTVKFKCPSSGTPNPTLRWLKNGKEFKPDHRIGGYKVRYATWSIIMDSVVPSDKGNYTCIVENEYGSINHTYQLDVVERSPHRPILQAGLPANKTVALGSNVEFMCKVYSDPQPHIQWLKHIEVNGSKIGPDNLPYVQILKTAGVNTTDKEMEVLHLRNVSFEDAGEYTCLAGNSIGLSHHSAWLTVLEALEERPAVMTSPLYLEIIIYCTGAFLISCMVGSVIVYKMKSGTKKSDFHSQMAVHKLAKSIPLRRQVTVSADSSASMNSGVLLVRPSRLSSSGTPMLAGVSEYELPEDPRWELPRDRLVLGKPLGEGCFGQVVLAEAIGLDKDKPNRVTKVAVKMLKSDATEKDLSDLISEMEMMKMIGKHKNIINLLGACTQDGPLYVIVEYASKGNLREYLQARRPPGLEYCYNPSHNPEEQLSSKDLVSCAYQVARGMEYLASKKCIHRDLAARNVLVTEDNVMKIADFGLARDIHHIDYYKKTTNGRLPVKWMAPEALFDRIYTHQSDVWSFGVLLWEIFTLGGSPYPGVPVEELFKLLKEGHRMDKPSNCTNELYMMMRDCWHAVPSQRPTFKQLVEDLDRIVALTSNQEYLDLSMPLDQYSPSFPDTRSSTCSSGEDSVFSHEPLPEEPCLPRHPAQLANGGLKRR
T4 sequence (P22607 23-806 V555M): as the sequence (P22607 23-806) above, with V533M counted along it

In the case of `C[C@@H](Oc1ccc2[nH]nc(-c3cnc(N4CC(C)(N5CCOCC5)C4)c(C#N)c3)c2c1)c1c(Cl)cncc1Cl` [Example 34, 5-[5-[(1R)-1-(3,5-dichloro-4-pyridyl)ethoxy]-1H-indazol-3-yl]-2-(3-methyl-3-morpholino-azetidin-1-yl)pyridine-3-carbonitrile], the Kd at FGFR1 lay in the range of 50 to 300 nM; at FGFR2, 50 to 300 nM; at FGFR3 it was 1 to 50 nM; on FGFR3 (V555M) it was 1 to 50 nM; on FGFR4, 1 to 50 nM. Moreover, the IC50 fell in the range of 200 to 1000 nM in experiment [1], 200 to 1000 nM in experiment [2], 50 to 200 nM in experiment [3] and 0.1 to 50 nM in experiment [4].

Turning to `COc1cc2[nH]nc(-c3cnc(N4CC(C)(N[C@@H]5CCOC5)C4)c(C#N)c3)c2cc1O[C@H](C)c1c(Cl)cncc1Cl` [Example 25, 5-(5-((R)-1-(3,5-dichloropyridin-4-yl)ethoxy)-6-methoxy-1H-indazol-3-yl)-2-(3-methyl-3-(((R)-tetrahydrofuran-3-yl)amino)azetidin-1-yl)nicotinonitrile], the Kd on FGFR1, at FGFR2, at FGFR3, on FGFR3 (V555M) and at FGFR4 was 1 to 50 nM throughout. Besides, the IC50 in experiment [1] is 50 to 200 nM; in [2] it was 50 to 200 nM; in [3], 0.1 to 50 nM; in [4] it was 0.1 to 50 nM.

In the case of `COCCNC1(C)CN(c2ncc(-c3n[nH]c4cc(OC)c(O[C@H](C)c5c(Cl)cncc5Cl)cc34)cc2C#N)C1` [Example 37, 5-[5-[(1R)-1-(3,5-dichloro-4-pyridyl)ethoxy]-6-methoxy-1H-indazol-3-yl]-2-[3-(2-methoxyethylamino)-3-methyl-azetidin-1-yl]pyridine-3-carbonitrile], the Kd on FGFR1, at FGFR2, at FGFR3, at FGFR3 (V555M) and on FGFR4 was 1 to 50 nM throughout. In addition, the half-inhibitory concentration (IC50) in experiment [1] lay in the range of 50 to 200 nM; in [2], 50 to 200 nM; in experiment [3], 0.1 to 50 nM; in experiment [4], 0.1 to 50 nM.

For `COC1(C)CN(C2(C)CN(c3ncc(-c4n[nH]c5ccc(O[C@H](C)c6c(Cl)cncc6Cl)cc45)cc3C#N)C2)C1` [Example 102, (R)-5-(5-(1-(3,5-dichloropyridin-4-yl)ethoxy)-1H-indazol-3-yl)-2-(3-methoxy-3,3′-dimethyl-[1,3′-biazetidin]-1′-yl)nicotinonitrile], the equilibrium dissociation constant (Kd) on FGFR1, at FGFR2, at FGFR3, at FGFR3 (V555M) and at FGFR4 was 1 to 50 nM each time. Besides, the 50% inhibitory concentration (IC50) in experiment [1] fell in the range of 200 to 1000 nM; in experiment [2], 200 to 1000 nM; in [3] it was 50 to 200 nM; in experiment [4], 0.1 to 50 nM.

Regarding `COc1cc2[nH]nc(-c3cnc(N4CC(C)(N)C4)c(C#N)c3)c2cc1O[C@H](C)c1c(Cl)cncc1Cl` [Example 143, 2-(3-amino-3-methyl-azetidin-1-yl)-5-[5-[(1R)-1-(3,5-dichloro-4-pyridyl)ethoxy]-6-methoxy-1H-indazol-3-yl]pyridine-3-carbonitrile], the Kd at FGFR1, on FGFR2, on FGFR3, on FGFR3 (V555M) and at FGFR4 was 1 to 50 nM throughout. Besides, the half-inhibitory concentration (IC50) in [1] was 50 to 200 nM; in [2], 50 to 200 nM; in experiment [3] it was 0.1 to 50 nM; in experiment [4], 0.1 to 50 nM.

Consider `COc1cc2[nH]nc(-c3cnc(N4CC(C)(CNC(C)C)C4)c(C#N)c3)c2cc1O[C@H](C)c1c(Cl)cncc1Cl` [Example 50, (R)-5-(5-(1-(3,5-dichloropyridin-4-yl)ethoxy)-6-methoxy-1H-indazol-3-yl)-2-(3-((isopropylamino)methyl)-3-methylazetidin-1-yl)nicotinonitrile], for which the Kd at FGFR1, at FGFR2, at FGFR3, at FGFR3 (V555M) and on FGFR4 was 1 to 50 nM throughout. Moreover, the half-maximal inhibitory concentration (IC50) in experiment [1], in [2], in experiment [3] and in [4] was 0.1 to 50 nM in each case.

On to `CCCNC1(C)CN(c2ncc(-c3n[nH]c4cc(OC)c(O[C@H](C)c5c(Cl)cncc5Cl)cc34)cc2C#N)C1` [Example 146, 5-[5-[(1R)-1-(3,5-dichloro-4-pyridyl)ethoxy]-6-methoxy-1H-indazol-3-yl]-2-[3-methyl-3-(propylamino)azetidin-1-yl]pyridine-3-carbonitrile], for which the Kd on FGFR1, on FGFR2, at FGFR3, on FGFR3 (V555M) and on FGFR4 was 1 to 50 nM in each case. Also, the IC50 in [1] is 50 to 200 nM; in experiment [2], 50 to 200 nM; in [3] it was 0.1 to 50 nM; in experiment [4], 0.1 to 50 nM.

Consider `C[C@@H](Oc1ccc2[nH]nc(-c3cnc(N4CC(C)(N5CCS(=O)(=O)CC5)C4)c(C#N)c3)c2c1)c1c(Cl)cncc1Cl` [Example 321, (R)-5-(5-(1-(3,5-dichloropyridin-4-yl)ethoxy)-1H-indazol-3-yl)-2-(3-(1,1-dioxidothio-morpholino)-3-methylazetidin-1-yl)nicotinonitrile], for which the Kd at FGFR1, at FGFR2, on FGFR3, on FGFR3 (V555M) and on FGFR4 was 1 to 50 nM each time. Also, the IC50 in experiment [1] is 200 to 1000 nM; in experiment [2], 200 to 1000 nM; in [3] it was 50 to 200 nM; in [4] it was 0.1 to 50 nM.

For the compound `COc1cc2[nH]nc(-c3cnc(N4CC(C)(NCC5CC5)C4)nc3)c2cc1O[C@H](C)c1c(Cl)cncc1Cl` [Example 339, (R)-N-(cyclopropyl-methyl)-1-(5-(5-(1-(3,5-dichloropyridin-4-yl)ethoxy)-6-methoxy-1H-indazol-3-yl)pyrimidin-2-yl)-3-methylazetidin-3-amine], the Kd on FGFR1, at FGFR2, at FGFR3, on FGFR3 (V555M) and at FGFR4 was 1 to 50 nM in each case. In addition, the half-maximal inhibitory concentration (IC50) in experiment [1], in experiment [2], in experiment [3] and in experiment [4] was 0.1 to 50 nM throughout.

Regarding `C[C@H](O)CNC1(C)CN(c2ncc(-c3n[nH]c4ccc(O[C@H](C)c5c(Cl)cncc5Cl)cc34)cc2C#N)C1` [Example 57, 5-(5-((R)-1-(3,5-dichloropyridin-4-yl)ethoxy)-1H-indazol-3-yl)-2-(3-(((S)-2-hydroxypropyl)amino)-3-methylazetidin-1-yl)nicotinonitrile], the Kd at FGFR1, at FGFR2, on FGFR3, on FGFR3 (V555M) and at FGFR4 was 1 to 50 nM in each case. In addition, the concentration for half-maximal inhibition (IC50) in experiment [1] lay in the range of 50 to 200 nM; in [2] it was 200 to 1000 nM; in [3], 0.1 to 50 nM; in experiment [4] it was 0.1 to 50 nM.

For `COc1cc2[nH]nc(-c3cnc(N4CC(C)(N(C)C)C4)c(C#N)c3)c2cc1O[C@H](C)c1c(Cl)cncc1Cl` [Example 10, 5-[5-[(1R)-1-(3,5-dichloro-4-pyridyl)ethoxy]-6-methoxy-1H-indazol-3-yl]-2-[3-(dimethylamino)-3-methyl-azetidin-1-yl]pyridine-3-carbonitrile], the Kd at FGFR1, on FGFR2, at FGFR3, on FGFR3 (V555M) and on FGFR4 was 1 to 50 nM in each case. Besides, the IC50 in experiment [1] is 50 to 200 nM; in [2], 50 to 200 nM; in experiment [3], 0.1 to 50 nM; in [4] it was 0.1 to 50 nM.

On to `COc1cc2[nH]nc(-c3cnc(N4CC(C)(NCCC(F)F)C4)c(C#N)c3)c2cc1O[C@H](C)c1c(Cl)cncc1Cl` [Example 41, 5-[5-[(1R)-1-(3,5-dichloro-4-pyridyl)ethoxy]-6-methoxy-1H-indazol-3-yl]-2-[3-(3,3-difluoropropylamino)-3-methyl-azetidin-1-yl]pyridine-3-carbonitrile], for which the Kd at FGFR1, on FGFR2, at FGFR3, on FGFR3 (V555M) and on FGFR4 was 1 to 50 nM each time. For the same compound, the half-inhibitory concentration (IC50) in [1] lay in the range of 50 to 200 nM; in experiment [2], 50 to 200 nM; in experiment [3], 0.1 to 50 nM; in experiment [4], 0.1 to 50 nM.
